Square brackets hold non-standard residues; d marks the D form. Peptide text beside a SMILES is read from it. Phe(4-NH2) = Nc1ccc(C[C@H](N)C(=O)O)cc1; 1Nal = N[C@@H](Cc1cccc2ccccc12)C(=O)O; pS = N[C@@H](COP(=O)(O)O)C(=O)O; hLeu = CC(C)CC[C@H](N)C(=O)O; Nle = CCCC[C@H](N)C(=O)O; Orn = NCCC[C@H](N)C(=O)O
Target: T1, PD-1/PD-L1 (Homo sapiens, UniProt Q15116)
T1 construct: this kit uses ectodomains of PD-1 and PD-L1 that are expressed with orthogonal fusion tags (Tag-1 and Tag-2); purchased CisBio (currently Perkin-Elmer, Bedford, MA)
Test: In vitro time-resolved FRET PD-1/PD-L1 binding assay (CisBio kit)
Settings: CisBio PD-1/PD-L1 binding kit, TR FRET, 96-well; for EC50: serial dilutions in triplicate, NI = no inhibition at maximum concentration tested (* 5 μM, ** 50 μM), read-out: EC50 (Supplementary Table S1; inhibition of PD-1/PD-L1 binding by in vitro TR-FRET assay)
Procedure: Commercial PD-1/PD-L1 binding assay kit (CisBio, currently Perkin-Elmer, Bedford, MA) for time resolve fluorescent energy transfer (FRET) was used to assess peptides binding to PD-1. The assay for peptide screening was performed in a 96-well format (normal pressure), starting with 4-fold serial dilutions of each peptide in triplicate. No-peptide triplicate wells were used to assess fluorescent energy transfer in the absence of inhibition, and no-PD-1/PD-L1 triplicate wells were used to assess the background fluorescent energy transfer in the absence of PD-1/PD-L1 complexes. More detailed concentration dependences were obtained for selected peptides. Only freshly dissolved peptides were used in the assay. Various QSAR (quantitative structure activity relationship) hypotheses were tested by synthesizing batches of 10–12 peptides. In total, over one hundred candidates in ten iterations were screened for their ability to inhibit in vitro PD-1/PD-L1 binding using the commercial PD-1/PD-L1 binding assay kit (CisBio, currently Perkin-Elmer). Briefly, this kit uses ectodomains of PD-1 and PD-L1 that are expressed with orthogonal fusion tags (Tag-1 and Tag-2). It also includes two antibodies to selectively interact with these tags. The antibody against one tag is labeled with fluorescent moiety, which serves as a donor, while the other antibody is labeled with fluorescent moiety, which serves as an acceptor in fluorescent resonance energy transfer (FRET). When the complex is formed and probed with both anti-Tag-1 and anti-Tag-2 antibodies, donor and acceptor are sufficiently close, and FRET can be detected in a time-resolved (TR) manner. Inhibitors of PD-1/PD-L1 interactions prevent complex formation, leading to a decrease in TR FRET in a concentration-dependent manner, as shown in Figure 2 for four representative peptide inhibitors. Initial fourfold dilutions are exemplified by data for peptides B5.11 and B5.6 (panels A and B); examples of the more detailed follow-up concentration dependences are shown for peptides B2.4 and B2.22 (panels C and D). The potency of the inhibitors is then characterized by IC50, a concentration that inhibits TR FRET by 50%, allowing for a facile comparison of different inhibitors (Figure 2E).

Row | EC50 [µM] | IC50 (4-fold serial dilutions in triplicate, freshly dissolved peptides, read-out: IC50, inhibition of PD-1/PD-L1 binding (TR FRET assay)) [µM] | SMILES
1 | > 5 |  | CCCC[C@H](NC(=O)[C@@H](NC(=O)[C@H](CCCNC(=N)N)NC(C)=O)C(C)C)C(=O)N[C@@H](CCCNC(=N)N)C(=O)N[C@H](C(=O)N[C@@H](CCC(=O)O)C(=O)NCC(=O)N[C@@H](C)C(=O)N[C@@H](C)C(=O)N[C@@H](Cc1c[nH]c2ccccc12)C(=O)N[C@@H](CC(=O)O)C(=O)N[C@@H](Cc1ccc(O)cc1)C(=O)N[C@@H](CCCCN)C(=O)N[C@@H](Cc1ccc(O)cc1)C(N)=O)[C@@H](C)CC [B4.6] (Ac-RV[Nle]RIEGAAWDYKY-NH2)
2 | > 5 |  | CCCC[C@H](NC(=O)[C@@H](NC(=O)[C@@H](N)CCCNC(=N)N)C(C)C)C(=O)N[C@H](C(=O)N[C@H](C(=O)N[C@H](C(=O)NCC(=O)N[C@@H](C)C(=O)N[C@@H](C)C(=O)N[C@@H](Cc1c[nH]c2ccccc12)C(=O)N[C@@H](CC(=O)O)C(=O)N[C@@H](Cc1ccc(O)cc1)C(=O)N[C@@H](CCCCN)C(=O)N[C@@H](Cc1ccc(O)cc1)C(=O)O)C(C)C)[C@@H](C)CC)C(C)C [B4.7] (H-RV[Nle]VIVGAAWDYKY-OH; N-terminus and C-terminus assumed)
3 | > 5 |  | CCCC[C@H](NC(=O)[C@@H](NC(=O)[C@H](CCCC)NC(=O)[C@@H](NC(=O)[C@@H](N)CCCNC(=N)N)C(C)C)C(C)C)C(=O)N[C@H](C(=O)NCC(=O)N[C@@H](C)C(=O)N[C@@H](C)C(=O)N[C@@H](Cc1c[nH]c2ccccc12)C(=O)N[C@@H](CC(=O)O)C(=O)N[C@@H](Cc1ccc(O)cc1)C(=O)N[C@@H](CCCCN)C(=O)N[C@@H](Cc1ccc(O)cc1)C(=O)O)C(C)C [B4.8] (H-RV[Nle]V[Nle]VGAAWDYKY-OH; N-terminus and C-terminus assumed)
4 | 5 |  | CCCC[C@H](NC(=O)[C@@H](NC(=O)[C@H](CCCNC(=N)N)NC(C)=O)C(C)C)C(=O)N[C@H](C(=O)N[C@H](C(=O)N[C@H](C(=O)NCC(=O)N[C@@H](C)C(=O)N[C@@H](CCCN)C(=O)N[C@@H](Cc1c[nH]c2ccccc12)C(=O)N[C@@H](CC(=O)O)C(=O)N[C@@H](Cc1ccc(O)cc1)C(=O)N[C@@H](CCCCN)C(=O)N[C@@H](Cc1ccc(O)cc1)C(N)=O)C(C)C)[C@@H](C)CC)C(C)C [B4.9] (Ac-RV[Nle]VIVGA[Orn]WDYKY-NH2)
5 | > 5 |  | CCCC[C@H](NC(=O)[C@@H](NC(=O)[C@@H](N)CCCNC(=N)N)C(C)C)C(=O)N[C@H](C(=O)N[C@H](C(=O)N[C@H](C(=O)NCC(=O)N[C@@H](C)C(=O)N[C@@H](C)C(=O)N[C@@H](Cc1c[nH]c2ccccc12)C(=O)N[C@@H](CC(=O)O)C(=O)N[C@@H](Cc1ccc(N)cc1)C(=O)N[C@@H](CCCCN)C(=O)N[C@@H](Cc1ccc(O)cc1)C(=O)O)C(C)C)[C@@H](C)CC)C(C)C [B4.10] (H-RV[Nle]VIVGAAWD[Phe(4-NH2)]KY-OH; N-terminus and C-terminus assumed)
6 | > 5 |  | CCCC[C@H](NC(C)=O)C(=O)N[C@H](C(=O)N[C@@H](Cc1c[nH]c2ccccc12)C(=O)N[C@H](C(=O)NCC(=O)N[C@@H](C)C(=O)N[C@@H](C)C(=O)N[C@@H](Cc1c[nH]c2ccccc12)C(=O)N[C@@H](CC(=O)O)C(=O)N[C@@H](Cc1ccc(O)cc1)C(=O)N[C@@H](CCCCN)C(=O)N[C@@H](Cc1ccc(O)cc1)C(N)=O)C(C)C)C(C)C [B4.11] (Ac-[Nle]VWVGAAWDYKY-NH2)
7 | > 5 |  | CCCC[C@H](NC(C)=O)C(=O)N[C@H](C(=O)N[C@@H](Cc1c[nH]c2ccccc12)C(=O)N[C@H](C(=O)NCC(=O)N[C@@H](C)C(=O)N[C@@H](C)C(=O)N[C@@H](Cc1c[nH]c2ccccc12)C(=O)N[C@@H](CC(=O)O)C(=O)N[C@@H](CCCNC(=N)N)C(=O)N[C@@H](CCCCN)C(=O)N[C@@H](Cc1ccc(O)cc1)C(N)=O)C(C)C)C(C)C [B4.12] (Ac-[Nle]VWVGAAWDRKY-NH2)
8 | > 5 |  | CCCC[C@H](N)C(=O)N[C@H](C(=O)N[C@@H](Cc1c[nH]c2ccccc12)C(=O)N[C@H](C(=O)NCC(=O)N[C@@H](C)C(=O)N[C@@H](C)C(=O)N[C@@H](Cc1c[nH]c2ccccc12)C(=O)N[C@@H](CC(=O)O)C(=O)N[C@@H](CCCNC(=N)N)C(=O)N[C@@H](CCCCN)C(=O)N[C@@H](Cc1ccc(O)cc1)C(=O)O)C(C)C)C(C)C [B4.13] (H-[Nle]VWVGAAWDRKY-OH; N-terminus and C-terminus assumed)
9 | > 5 |  | CCCC[C@H](N)C(=O)N[C@H](C(=O)N[C@H](C(=O)N[C@H](C(=O)NCC(=O)N[C@@H](C)C(=O)N[C@@H](C)C(=O)N[C@@H](Cc1c[nH]c2ccccc12)C(=O)N[C@@H](CC(=O)O)C(=O)N[C@@H](Cc1ccc(O)cc1)C(=O)N[C@@H](CCCCN)C(=O)N[C@@H](CCCNC(=N)N)C(=O)O)C(C)C)[C@@H](C)CC)C(C)C [B4.14] (H-[Nle]VIVGAAWDYKR-OH; N-terminus and C-terminus assumed)
10 | > 5 |  | CCCC[C@H](N)C(=O)N[C@H](C(=O)N[C@@H](Cc1c[nH]c2ccccc12)C(=O)N[C@H](C(=O)NCC(=O)N[C@@H](C)C(=O)N[C@@H](C)C(=O)N[C@@H](Cc1c[nH]c2ccccc12)C(=O)N[C@@H](CC(=O)O)C(=O)N[C@@H](Cc1ccc(O)cc1)C(=O)N[C@@H](CCCCN)C(=O)N[C@@H](Cc1ccc(O)cc1)C(=O)O)C(C)C)C(C)C [B4.15] (H-[Nle]VWVGAAWDYKY-OH; N-terminus and C-terminus assumed)
11 | > 5 |  | CC[C@H](C)[C@H](NC(=O)[C@H](CCC(C)C)NC(=O)[C@H](CC(=O)O)NC(C)=O)C(=O)N[C@H](C(=O)NCC(=O)N[C@@H](C)C(=O)N[C@@H](C)C(=O)N[C@@H](Cc1c[nH]c2ccccc12)C(=O)N[C@@H](CC(=O)O)C(=O)N[C@@H](Cc1ccc(O)cc1)C(=O)N[C@@H](CCCCN)C(=O)N[C@@H](Cc1ccc(O)cc1)C(N)=O)C(C)C [B5.3] (Ac-D[hLeu]IVGAAWDYKY-NH2)
12 | > 5 |  | CCCC[C@H](NC(C)=O)C(=O)N[C@H](C(=O)N[C@@H](CC(=O)O)C(=O)N[C@H](C(=O)N[C@H](C(=O)N[C@H](C(=O)NCC(=O)N[C@@H](C)C(=O)N[C@@H](C)C(=O)N[C@@H](Cc1c[nH]c2ccccc12)C(=O)N[C@@H](CC(=O)O)C(=O)N[C@@H](Cc1ccc(O)cc1)C(=O)N[C@@H](CCCCN)C(=O)N[C@@H](Cc1ccc(O)cc1)C(N)=O)C(C)C)[C@@H](C)CC)C(C)C)C(C)C [B5.5] (Ac-[Nle]VDVIVGAAWDYKY-NH2)
13 | 0.2 | 0.2 | CCCC[C@H](NC(C)=O)C(=O)N[C@H](C(=O)N[C@@H](CC(C)C)C(=O)N[C@H](C(=O)N[C@H](C(=O)N[C@H](C(=O)NCC(=O)N[C@@H](C)C(=O)N[C@@H](C)C(=O)N[C@@H](Cc1c[nH]c2ccccc12)C(=O)N[C@@H](CC(=O)O)C(=O)N[C@@H](Cc1ccc(O)cc1)C(=O)N[C@@H](CCCCN)C(=O)N[C@@H](Cc1ccc(O)cc1)C(N)=O)C(C)C)[C@@H](C)CC)C(C)C)C(C)C [B5.6] (Ac-[Nle]VLVIVGAAWDYKY-NH2)
14 | > 5 |  | CCCC[C@H](NC(=O)[C@H](CC(=O)O)NC(C)=O)C(=O)N[C@H](C(=O)N[C@H](C(=O)NCC(=O)N[C@@H](C)C(=O)N[C@@H](C)C(=O)N[C@@H](Cc1c[nH]c2ccccc12)C(=O)N[C@@H](CC(=O)O)C(=O)N[C@@H](Cc1ccc(O)cc1)C(=O)N[C@@H](CCCCN)C(=O)N[C@@H](Cc1ccc(O)cc1)C(N)=O)C(C)C)[C@@H](C)CC [B5.7] (Ac-D[Nle]IVGAAWDYKY-NH2)
15 | > 5 |  | CCCC[C@H](NC(=O)[C@@H](NC(=O)[C@H](CC(=O)O)NC(C)=O)C(C)C)C(=O)N[C@H](C(=O)NCC(=O)N[C@@H](C)C(=O)N[C@@H](C)C(=O)N[C@@H](Cc1c[nH]c2ccccc12)C(=O)N[C@@H](CC(=O)O)C(=O)N[C@@H](Cc1ccc(O)cc1)C(=O)N[C@@H](CCCCN)C(=O)N[C@@H](Cc1ccc(O)cc1)C(N)=O)C(C)C [B5.8] (Ac-DV[Nle]VGAAWDYKY-NH2)
16 | > 5 |  | CC[C@H](C)[C@H](NC(=O)[C@@H](NC(=O)[C@H](CC(=O)O)NC(C)=O)C(C)C)C(=O)N[C@H](C(=O)NCC(=O)N[C@@H](C)C(=O)N[C@@H](C)C(=O)N[C@@H](Cc1cccc2ccccc12)C(=O)N[C@@H](CC(=O)O)C(=O)N[C@@H](Cc1ccc(O)cc1)C(=O)N[C@@H](CCCCN)C(=O)N[C@@H](Cc1ccc(O)cc1)C(N)=O)C(C)C [B6.1] (Ac-DVIVGAA[1Nal]DYKY-NH2)
17 | > 5 |  | CC[C@H](C)[C@H](NC(=O)[C@@H](NC(=O)[C@H](CC(C)C)NC(C)=O)C(C)C)C(=O)N[C@H](C(=O)NCC(=O)N[C@@H](C)C(=O)N[C@@H](C)C(=O)N[C@@H](Cc1c[nH]c2ccccc12)C(=O)N[C@@H](COP(=O)(O)O)C(=O)N[C@@H](Cc1ccc(O)cc1)C(=O)N[C@@H](CCCCN)C(=O)N[C@@H](Cc1ccc(O)cc1)C(N)=O)C(C)C [B6.2] (Ac-LVIVGAAW[pS]YKY-NH2)
